Experimental data reported in patent US7342012B2, “Inhibitors of αLβ2 mediated cell adhesion” (Mitsubishi Tanabe Pharma Corporation, priority 1999, dated 2008).

Row | Compound | melting point
1 | O=C1N(c2cc(Cl)nc(Cl)c2)C(=O)C2(Cc3ccc(O)cc3)CCCN12 (centres unmarked) [Example 196, 5-(4-Hydroxybenzyl)-3-(2,6-dichloro-4-pyridyl)-1,3-diazabicyclo[3.3.0]octane-2,4-dione] | 164.9 °C
2 | Nc1ccc(-c2ccc(CC34CCCN3C(=O)N(c3cc(Cl)cc(Cl)c3)C4=O)cc2)cc1 (centres unmarked) [Example 115, 5-[4-(4-Aminophenyl)benzyl]-3-(3,5-dichlorophenyl)-1,3-diazabicyclo[3.3.0]octane-2,4-dione] | 278 °C (dec.)
3 | O=C1N(c2cc(Cl)cc(Cl)c2)C(=O)C2(Cc3ccc(-c4cccnc4)cc3)CCCCN12 (centres unmarked) [Example 7, 6-[4-(3-Pyridyl)benzyl]-8-(3,5-dichlorophenyl)-1,8-diazabicyclo[4.3.0]nonane-7,9-dione] | 276.5 °C
4 | CSc1cccc(N2C(=O)N3CCCC3(Cc3ccc(Br)cc3)C2=O)c1 (centres unmarked) [Example 231] | 84.8 °C
5 | N#Cc1ccc(CC23CCCN2C(=O)N(c2cc(Cl)nc(Cl)c2)C3=O)cc1 (centres unmarked) [Example 130, 5-(4-Cyanobenzyl)-3-(2,6-dichloro-4-pyridyl)-1,3-diazabicyclo[3.3.0]octane-2,4-dione] | 96 °C
6 | CN1CCN2C(=O)N(c3cc(Cl)cc(Cl)c3)C(=O)C2(Cc2ccc(Br)cc2)C1 (centres unmarked) [Example 29, 4-Methyl-6-(4-bromobenzyl)-8-(3,5-dichloro-phenyl)-1,4,8-triazabicyclo[4.3.0]nonane-7,9-dione] | 221 °C

Other lines, results leading:

Row | melting point | Compound
7 | 92.5 °C | O=C1N(c2cc(Cl)cc(Cl)c2)C(=O)C2(Cc3ccc(Br)cc3)CNCCN12 (centres unmarked) [Example 27, 6-(4-Bromobenzyl)-8-(3,5-dichlorophenyl)-1,4,8-triazabicyclo[4.3.0]nonane-7,9-dione]
8 | 107.8 °C | NC(=O)C(N)CC(=O)N[C@@H]1CN2C(=O)N(c3cc(Cl)nc(Cl)c3)C(=O)[C@@]2(Cc2ccc(OC(F)(F)F)cc2)C1 (stereo partly drawn) [Example 255, (5R, 7S)-5-[4-(Trifluoromethoxy)benzyl]-3-(2,6-dichloro-4-pyridyl)-7-[(3-carbamoyl-3-aminopropanoyl)amino]-1,3-diazabicyclo[3.3.0]octane-2,4-dione]
9 | 64.4 °C | N[C@@H]1CN2C(=O)N(c3cc(Cl)cc(Cl)c3)C(=O)[C@@]2(Cc2ccc(Br)cc2)C1 [Example 47, (5R,7S)-5-(4-Bromobenzyl)-3-(3,5-dichlorophenyl)-7-amino-1,3-diazabicyclo[3.3.0]octane-2,4-dione]
10 | 57.9 °C | CN(C)CCCC(=O)N[C@@H]1CN2C(=O)N(c3cc(Cl)cc(Cl)c3)C(=O)[C@@]2(Cc2ccc(OC(F)(F)F)cc2)C1 [Example 302, (5R, 7S)-5-[4-(Trifluoromethoxy)benzyl]-3-(3,5-dichlorophenyl)-7-[[4-(dimethylamino)butyryl]amino]-1,3-diazabicyclo[3.3.0]octane-2,4-dione]
11 | 61.2 °C | CC(=O)N[C@@H]1CN2C(=O)N(c3cc(Cl)cc(Cl)c3)C(=O)[C@]2(Cc2ccc(OC(F)(F)F)cc2)C1 [Example 291]
12 | 256.2 °C (dec.) | O=C(O)c1ccc(CC23CCCCN2C(=O)N(c2cc(Cl)cc(Cl)c2)C3=O)cc1 (centres unmarked) [Example 156]
13 | 74.9 °C | COC(=O)C=C1CN2C(=O)N(c3cc(Cl)cc(Cl)c3)C(=O)C2(Cc2ccc(Br)cc2)C1 (centres unmarked) [Example 36, 5-(4-Bromobenzyl)-3-(3,5-dichlorophenyl)-7-methoxycarbonylmethylene-1,3-diazabicyclo[3.3.0]octane-2,4-dione]
14 | 85.4 °C | O=C1CN2C(=O)N(c3cc(Cl)cc(Cl)c3)C(=O)C2(Cc2ccc(Br)cc2)C1 (centres unmarked) [Example 35, 5-(4-Bromobenzyl)-3-(3,5-dichlorophenyl)-1,3-diazabicyclo[3.3.0]octane-2,4,7-trione]
